Results as given in the NIST ThermoML archive (doi:10.1016/j.jct.2007.05.004).
± gives the expanded uncertainty stated by the source.

Experiment: xn = mol fraction of the nth substance listed
Details: 101 kPa, Liquid

CO [methanol] + CCOC(C)=O
x1 = 1
Details	mass density [kg/m3]	viscosity [mPa·s]
293.15 K	791.9 ± 0.46	0.585 ± 0.008
298.15 K	787.2 ± 0.46	0.545 ± 0.008
303.15 K	782.48 ± 0.47	0.508 ± 0.007

COC(C)=O [methyl ethanoate] + CO
Details	mass density, 293.15 K [kg/m3]	mass density, 298.15 K [kg/m3]	mass density, 303.15 K [kg/m3]	viscosity, 293.15 K [mPa·s]	viscosity, 298.15 K [mPa·s]	viscosity, 303.15 K [mPa·s]
x2 = 0	933.56 ± 0.4	926.98 ± 0.41	920.34 ± 0.42	0.386 ± 0.006	0.367 ± 0.006	0.348 ± 0.006
x2 = 0.0471	930.26 ± 0.4	923.71 ± 0.4	917.1 ± 0.41	0.378 ± 0.006	0.359 ± 0.006	0.341 ± 0.006
x2 = 0.0982	926.48 ± 0.39	919.95 ± 0.4	913.37 ± 0.4	0.378 ± 0.006	0.361 ± 0.006	0.342 ± 0.006
x2 = 0.1983	918.39 ± 0.37	911.96 ± 0.38	905.46 ± 0.39	0.379 ± 0.006	0.366 ± 0.006	0.348 ± 0.006
x2 = 0.2912	909.97 ± 0.37	903.65 ± 0.37	897.26 ± 0.38	0.382 ± 0.006	0.364 ± 0.006	0.347 ± 0.006
x2 = 0.4015	898.52 ± 0.36	892.35 ± 0.37	886.12 ± 0.38	0.394 ± 0.006	0.37 ± 0.006	0.351 ± 0.006
x2 = 0.5006	886.79 ± 0.37	880.78 ± 0.37	874.71 ± 0.38	0.404 ± 0.006	0.382 ± 0.006	0.36 ± 0.006
x2 = 0.5878	875.07 ± 0.37	869.25 ± 0.38	863.35 ± 0.39	0.416 ± 0.006	0.392 ± 0.006	0.371 ± 0.006
x2 = 0.7017	857.33 ± 0.38	851.73 ± 0.39	846.09 ± 0.4	0.442 ± 0.007	0.416 ± 0.006	0.393 ± 0.006
x2 = 0.8015	838.91 ± 0.4	833.57 ± 0.41	828.19 ± 0.42	0.472 ± 0.007	0.443 ± 0.007	0.417 ± 0.006
x2 = 0.9008	817.51 ± 0.42	812.45 ± 0.43	807.37 ± 0.44	0.521 ± 0.007	0.486 ± 0.007	0.455 ± 0.007
x2 = 0.9504	805.16 ± 0.44	800.29 ± 0.45	795.38 ± 0.45	0.551 ± 0.008	0.516 ± 0.007	0.483 ± 0.007

O [water] + CCO
x1 = 1
Details	viscosity [mPa·s]
293.15 K	1.002 ± 0.013
298.15 K	0.89 ± 0.012
303.15 K	0.797 ± 0.011

CCO [ethanol] + COC(C)=O
x1 = 1
Details	mass density [kg/m3]	viscosity [mPa·s]
293.15 K	789.75 ± 0.46	1.187 ± 0.015
298.15 K	785.46 ± 0.47	1.082 ± 0.014
303.15 K	781.15 ± 0.47	0.987 ± 0.013
